Consider seven compounds from patent US20110124690A1, “COMPOSITIONS AND METHODS FOR TREATING CANCER OR A NEUROTROPHIC DISORDER” (priority 2007, published 2011).

For series [1], the system named is CCRF-CEM human T-cell acute lymphoblastic leukemia cells. The experiment in a line: XTT microculture cytotoxicity assay, CCRF-CEM cells. The series is classed as cell-based. (Tetrazolium dyes change colour on reduction, which living cells bring about.)
Protocol: (§2) CCRF-CEM human T-cell acute lymphoblastic leukemia cells and the corresponding vinblastine-resistant cells (CCRF-CEM/VBL100) were cultured at an initial density of 5×10^4 cells per milliliter. The cultured cells were then maintained in a 5% CO2-humidified atmosphere at 37° C. in RPMI medium 1640 (GIBCO/BRL) containing penicillin (100 units/mL), streptomycin (100 μg/mL, GIBCO/BRL), and 10% heat-inactivated fetal bovine serum. The cytotoxicity of each Panaxytriol Compound was measured using the 2,3-bis(2-methoxy-4-nitro-5-sulfophenyl)-5-[(phenylamino)carbonyl]-2H-tetrazolium hydroxide (XTT) microculture method as described in Scudiero et al., Cancer Res., 48:4827 (1988).
The test system of series [2] is CCRF-CEM/VBL (vinblastine-resistant) cells. In words: XTT microculture cytotoxicity assay, vinblastine-resistant CCRF-CEM/VBL cells. The series is classed as cell-based, human. As to conditions: for IC50: Homo sapiens, CCRF-CEM.
Protocol: as §2
In series [3] the test system is CCRF-CEM/Taxol cells. In words: XTT microculture cytotoxicity assay, Taxol-resistant CCRF-CEM/Taxol cells. As to conditions: Table 3A. In kind it is cell-based, human.
Protocol: as §2
In series [4] the test system is human mammary carcinoma xenograft MX-1. In words: Therapeutic effect in nude mice bearing MX-1 xenograft. In kind it is in vivo. As to conditions: slow i.v. infusion; for Tumor growth at elevated dosage levels: elevated dosages. The method, then: (§1) Nude mice having human mammary carcinoma xenograft MX-1 were treated with panaxytriol or Compound (A) at various dosages through the slow i.v. infusion protocol by Chou et al. (Chou, T. C., et al, Proc. Natl. Acad. Sci. U.S.A. 95: 15798 (1998)).

The nature of series [5]: Body weight of treated nude mice bearing MX-1 xenograft. In kind it is in vivo. As to conditions: highest dosage levels (100 mg/kg). Here is the method: as §1
[6] abbreviates: 72 h, Table 3, XTT assay, 72-hour inhibition, read-out: IC50 (μM) CCRF-CEM.
[7] abbreviates: 72 h, Table 3, XTT assay, 72-hour inhibition, vinblastine-resistant cells.

Where two headings read alike, the source gives them in different places.

In general, IC50 refers to the midpoint of a concentration-inhibition curve. On to `C=C[C@H](C#CC#CC[C@H]1OC(C)(C)O[C@@H]1CCCCCCC)OC(=O)/C=C/c1ccccc1` [Compound (E)], for which, in series [1] (Table 3B, read-out: IC50 (in μM) for human leukemic lymphoblastic leukemia cells CCRF-CEM), the concentration for half-maximal inhibition (IC50) amounted to 6.51 µM.

For `C=C[C@H](O)C#CC#CC[C@H]1OC(C)(C)O[C@@H]1CCCCCCC` [Compound (D)], the “Fold resistance, CCRF-CEM/VBL vs parent CCRF-CEM (fold increase in IC50)” value in series [2] (Table 3A) is “[1.98-fold”. Also, the “Fold resistance, CCRF-CEM/Taxol vs parent CCRF-CEM (fold increase in IC50)” value in series [3] is “[2.17-fold”.

As to `C=C[C@@H](O)C#CC#CC[C@H]1OC(C)(C)O[C@@H]1CCCCCCC` [Compound A], the IC50 was 1.98 ± 0.2 µM in series [1] (setting [6]); 6.15 µM in series [1] (Table 3A, compound stored in DMSO at below approximately −20° C. for 4 years and 4 months, read-out: IC50 (μM) CCRF-CEM); 2.41 ± 0.05 µM in series [2] (setting [7]); 6.82 µM in series [2] (Table 3A, compound stored in DMSO at below approximately −20° C. for 4 years and 4 months); 17.2 µM in series [3] (Homo sapiens, CCRF-CEM, compound stored in DMSO at below approximately −20° C. for 4 years and 4 months). Further, the “Fold resistance, CCRF-CEM/VBL vs parent CCRF-CEM (fold increase in IC50)” value in series [2] (Table 3A) was “[1.4-fold”. Moreover, the “Tumor growth at elevated dosage levels” value in series [4] was “enhanced tumor-growth suppression”. Besides, the “Reduction in tumor mass” value in series [4] (including elevated dosages) is “did not lead to a reduction in the tumor mass”. For the same compound, in series [4] (levels as low as 10 mg/kg, FIG. 2), the Tumor growth entry is listed as “inhibiting tumor growth”.

For the compound `C=C[C@@H](O)C#CC#CC[C@@H](O)[C@H](O)CCCCCCC` [panaxytriol], the “Fold resistance (IC50 CCRF-CEM/VBL vs CCRF-CEM), in parentheses” value in series [2] (Table 3) amounted to 1.20 x. In series [4] (30 mg/kg, FIG. 1), the “Reduction in tumor mass” value is “no significant reduction in tumor mass” and the Tumor growth result is “some suppression of tumor growth”. Besides, the “Tumor growth at elevated dosage levels” value in series [4] is listed as “improved inhibitory effects”. Besides, in series [5], the Body weight result is listed as “no body weight decrease”.

Turning to `C=CC(=O)C#CC#CC[C@@H](O)[C@H](O)CCCCCCC` [Compound B], the “Fold resistance (IC50 CCRF-CEM/VBL vs CCRF-CEM), in parentheses” value in series [2] (Table 3) is reported as 1.40 x.

For the compound `C=CC(=O)C#CC#CC[C@H]1OC(C)(C)O[C@@H]1CCCCCCC` [Compound C], the 50% inhibitory concentration (IC50) was found to be 3.23 ± 0.78 µM in series [1] (setting [6]) and 3.84 ± 0.08 µM in series [2] (setting [7]).

Turning to `CC[C@]1(O)C[C@@H]2CN(CCc3c([nH]c4ccccc34)[C@@](C(=O)OC)(c3cc4c(cc3OC)N(C)[C@H]3[C@@](O)(C(=O)OC)[C@H](OC(C)=O)[C@]5(CC)C=CCN6CC[C@]43[C@@H]65)C2)C1` [Vinblastine, reference compound], the IC50 was determined as 0.002 µM in series [1] (setting [6]) and 0.8 µM in series [2] (setting [7]).
